{
  "source": "paper PMC7912796",
  "about": "“Design, Synthesis, Anticancer Activity, and Solid Lipid Nanoparticle Formulation of Indole- and Benzimidazole-Based Compounds as Pro-Apoptotic Agents Targeting Bcl-2 Protein” (Pharmaceuticals, 2021)",
  "key": {"[1]": {"test_system": "MDA-MB-231/breast cancer cells", "assay": "SRB cytotoxicity assay", "type": "cell-based", "details": "Homo sapiens; MDA-MB-231, 72 h exposure", "experimental": "MDA-MB-231: Breast Cancer cell line was obtained from Nawah^TM Scientific Inc., (Cairo, Egypt). Cells were maintained within DMEM provided by 100 units/mL of penicillin, […], and 10% of heat-inactivated FBS within 5% (v/v) CO2 humidified atmosphere (37 °C). The validity of cell line was evaluated adopting the previously reported approach. Briefly, an accurate volume (100 μL) of cell line suspension (5 × 10^3 cells) was placed in 96-well plates and incubated for 24 h within complete media. Cell line suspensions were then treated with another 100 μL media spiked with various drug concentrations (0.01, 0.1, 1, 10, 100 μM/mL) and kept for 72 h. Then the media were replaced with 150 μL of 10% trichloroacetic acid (TCA) for fixing cells through subsequent 1 h incubation at 4 °C [74]. Following incubation, TCA was removed, and cells were washed via distilled water 5 times. Aliquots of 70 μL SRB solution (0.4% w/v; Cat.# S1402; Sigma-Aldrich^TM, Taufkirchen, Germany) were added and cell were then incubated in dark for 10 min at 25 °C. Plates were subjected to triplicate washing via 1% acetic acid and then permitted to be air-dried overnight. Protein-bound SRB stain was extracted by addition of tris base (150 μL, 10 mM) and the absorbance was measured at 540 nm using FLUOstar-Omega® microplate reader (BMG-Labtech^TM GmbH, Ortenberg, Germany)."}, "[2]": {"test_system": "MDA-MB-231/breast cancer cell line", "assay": "DNA fragmentation assay", "type": "cell-based, human", "details": "13 µM, 48 h and 72 h, agarose gel ladder", "experimental": "In order to delineate the mechanistic aspects of MDA-MB-231/breast cancer cell death mediated by 8b, the DNA fragmentation assay was conducted as being highly characteristic for apoptosis. […] A typical ladder pattern of internucleosomal fragmentation was observed from cell homogenates within both incubation periods (Figure 8). Such findings further confirm the significant activity of 8b as a potent inducer of apoptosis.\nDNA isolation was performed through planting MDA-MB-231/breast cells at 0.16x10^6 density, prior to incubation at 37 °C/humidified 5% CO2 overnight. Following 48 h exposure time, cells were harvested, washed and lysed via DNA-extraction buffer at 37 °C overnight. The lysate was incubated after that with 100 μg/mL […] (Cat.#: 9097.1; Carl-Roth^TM, Karlsruhe, Germany) at 37 °C for 2 h, which was followed by three extraction processes using phenol:CHCl3 (1:1 v/v) (Bioflux^TM, Selangor, Malaysia). A consequent re-extraction was done using CHCl3 and then the organic solvent was centrifuged for 5 min at 12,000 rpm within 4 °C conditions. Extracted DNA was precipitated via ice-cold 3 M sodium acetate and absolute ethanol for 1 h at –20 °C, which was then proceeded through centrifugation (15 min—at 12,000 rpm—4 °C). […]"}, "[3]": {"assay": "In-vitro drug release, dialysis method", "type": "physicochemical", "details": "over 48 h, PBS pH 7.4, 37 °C, dialysis bag", "experimental": "The in-vitro drug-release behavior of SLNs was determined through the dialysis method. The release of drug from SLNs was done using phosphate buffer saline (pH 7.4) as dissolution medium. An accurate amount of SLNs (equivalent to 5 mg drug) was taken and placed within the dialysis bag (MWCO: 12 kDa). The dialysis bag was closed from both ends and placed within 75 mL Phosphate Buffer Saline (pH 7.4) as dissolution medium. The analysis was conducted while maintaining the dissolution medium at 37 ± 1 °C and being stirred via magnetic stirrer at 100 rpm. Dissolution medium samples (2 mL) were withdrawn at pre-determined time intervals (0.5, 1, 2, 4, 8, 12, 24 and 48 h). Equal volumes of fresh dissolution medium were added to replace the withdrawn volumes for keeping sink condition. The experiment was done in triplicate and the amount of drug release was measured following the same procedure as in the entrapment efficiency section."}, "[4]": {"test_system": "MDA-MB-231/breast cancer cell line", "assay": "Cell cycle analysis, propidium iodide flow cytometry", "type": "cell-based, human", "details": "13 µM, 48 h", "description": "(§1) Using flow cytometry, apoptosis rate analysis was proceeded through staining the cell surface-translocating phosphatidylserine with Annexin-V fluorescent conjugate, the calcium-dependent phospholipid binding protein [32]. However, cell cycle analysis was achieved using propidium iodine fluorescent dye to stoichiometrically stain cell DNA contents allowing quantitation and identification of all cell phase rates; G0-G1, S, G2/M, and pre-G1 [33, 34]. […] For identifying the mode of cell death promoted by 8b within MDA-MB-231/breast cancer cells, apoptosis rate analysis was performed following 48 h exposure time. […] Moreover, the average proportion of Annexin-V stained positive cells (total apoptotic cells) elevated from 1.72% within untreated cells to 18.93% in treated ones (p < 0.001). […] The above provided findings are supported by the previous cell cycle analysis confirming the potentiality of 8b as promising anticancer agent.\nApoptotic assay and cell cycle analysis were proceeded according to previous literatures. […] Following incubation, MDA-MB-231 cells were trypsinized, harvested, and fixed according to information cited within Annexin® V-FITC Detection Kit (Cat.#: K101-25, BioVision^TM, Milpitas, CA, USA), for quantifying cell’s DNA contents being treated with 8b relative to control sample using propidium iodide stain (Cat.#: ab139418; Abcam^TM, Cambridge, MA, USA). […]"}, "[5]": {"test_system": "MDA-MB-231/breast cancer cell line", "assay": "Apoptosis rate analysis, Annexin-V/FACS", "type": "cell-based, human", "details": "13 µM, 48 h", "description": "as §1\nApoptotic assay and cell cycle analysis were proceeded according to previous literatures. In brief, cells were planted in 1.0 × 10^6 cells/flask density for 24 h. Subsequently, 8b was added at its IC50 value and incubated for 48 h. Following incubation, MDA-MB-231 cells were trypsinized, harvested, and fixed according to information cited within Annexin® V-FITC Detection Kit (Cat.#: K101-25, BioVision^TM, Milpitas, CA, USA), for quantifying cell’s DNA contents being treated with 8b relative to control sample using propidium iodide stain (Cat.#: ab139418; Abcam^TM, Cambridge, MA, USA). Finally, flow cytometry analysis was done using BD-FACSCalibur® cell analyzer platform (Becton Dickinson-Biosciences-SG^TM, Singapore, Thailand) to estimate which cell cycle phase, the treated cells would be arrested in, as well as computing the percentage of apoptotic cells."}, "A549/lung adenocarcinoma": {"test_system": "A549/lung adenocarcinoma", "assay": "Morphological assessment", "type": "cell-based, human", "details": "0.1-100 µM (5-FU 100 µM), 48 h, phase-contrast microscope"}},
  "data": [
    {"compound": "CCCc1ccc(-c2nn(-c3ccccc3)cc2C=NNC(=O)c2cc3ccccc3[nH]2)cc1", "note": "[Compound 8b, N′-((1-phenyl-3-(4-propylphenyl)-1H-pyrazol-4-yl)methylene)-1H-indole-2-carbohydrazide]", "values": [
      {"measurement": "IC50", "setting": "[1]", "result": "12.4 ± 0.5", "unit": "µM"},
      {"measurement": "DNA fragmentation", "setting": "[2]", "result": "Significant DNA fragmentation"},
      {"measurement": "total released amount of drug", "setting": "[3]", "result": "21.48 ± 1.17", "unit": "%"},
      {"measurement": "cell population at pre-G1 stage", "setting": "[4]", "result": 1.72, "unit": "%"},
      {"measurement": "cell population at G2/M stage", "setting": "[4]; untreated 6.15%", "result": 25.32, "unit": "%"},
      {"measurement": "influence on necrosis", "setting": "[5]", "result": "no influence on the necrosis"},
      {"measurement": "early apoptotic cell population (LR quadrant)", "setting": "[5]; quadrant assignment assumed", "result": 5.09, "unit": "%"},
      {"measurement": "late apoptotic cell population (UR quadrant)", "setting": "[5]; quadrant assignment assumed", "result": 12.02, "unit": "%"},
      {"measurement": "necrotic cell population (UL quadrant)", "setting": "[5]; quadrant assignment assumed", "result": 1.82, "unit": "%"},
      {"measurement": "Annexin-V stained positive cells (total apoptotic cells)", "setting": "[5]; untreated 1.72%", "result": 18.93, "unit": "%"},
      {"measurement": "cell morphology alterations", "setting": "A549/lung adenocarcinoma", "result": "Comparable cell morphology changes"}
    ]}
  ]
}
